The text below walks through data of paper PMC11191877, “Discovery of new Schiff bases of the disalicylic acid scaffold as DNA gyrase and topoisomerase IV inhibitors endowed with antibacterial properties” (Frontiers in Chemistry, 2024).

Series [1] has as its system Mycobacterium tuberculosis H37Rv. Details: method as in Souza et al., 2007. Particulars: ref Souza et al., 2007; cited from earlier work.
The test system of a further series is J774 macrophages. The arrangement: method as in Souza et al., 2007. Particulars: ref Souza et al., 2007, cited from earlier work.
For series [2], the system named is Gram-positive and Gram-negative bacteria. Put plainly: Disc diffusion, activity relative to ciprofloxacin over the bacterial panel. The class given is cell-based. Particulars: Gram-negative strains. How it is done: (§1) The antimicrobial activity of compounds 5a-k was assessed using a modified Kirby-Bauer disc diffusion method ([Alkhaldi et al., 2019]; [Al-Wahaibi et al., 2021b]; [Manso et al., 2021]; [Ecevit et al., 2022]). […] Ciprofloxacin was used as a reference medication. […] Compounds 5f-k had promising antibacterial action against Gram-positive and Gram-negative bacteria, ranging from 75% to 115% of typical ciprofloxacin levels. […]
incubated at 35-37 °C for 24-48 hours and yeast as Candida albicans (ATCC 7102) incubated at 30 °C for 24-48 hours and, then the diameters of the inhibition zones were measured in millimeters. Standard discs of ciprofloxacin (Antibacterial agent), Fluconazole (Antifungal agent) served as positive controls for antimicrobial activity but filter discs impregnated with 10 µl of solvent (distilled water, chloroform, DMSO) were used as a negative control. Blank paper disks (Schleicher & Schuell, Spain) with a diameter of 8.0 mm were impregnated 10µ of tested concentration of the stock solutions. When a filter paper disc impregnated with a tested chemical is placed on agar the chemical will diffuse from the disc into the agar. This diffusion will place the chemical in the agar only around the disc. […] For the disc diffusion, the zone diameters were measured with slipping calipers of the National Committee for Clinical Laboratory […]
A general note: Agar diffusion results depend on both activity and mobility in agar.

A further series has as its system Staph. aureus. Put plainly: Modified Kirby-Bauer disc diffusion. Type of series: cell-based, Staphylococcus aureus. Conditions: for Inhibition zone diameter: Staph. aureus (G+). How it is done:
as §1
(§2) incubated at 35-37 °C for 24-48 hours and yeast as Candida albicans (ATCC 7102) incubated at 30 °C for 24-48 hours and, then the diameters of the inhibition zones were measured in millimeters. Standard discs of ciprofloxacin (Antibacterial agent), Fluconazole (Antifungal agent) served as positive controls for antimicrobial activity but filter discs impregnated with 10 µl of solvent (distilled water, chloroform, DMSO) were used as a negative control. Blank paper disks (Schleicher & Schuell, Spain) with a diameter of 8.0 mm were impregnated 10µ of tested concentration of the stock solutions. When a filter paper disc impregnated with a tested chemical is placed on agar the chemical will diffuse from the disc into the agar. This diffusion will place the chemical in the agar only around the disc. The solubility of the chemical and its molecular size will determine the size of the area of chemical infiltration around the disc. If an organism is placed on the agar it will not grow in the area around the disc if it is susceptible to the chemical. This area of no growth around the disc is known as a “Zone of inhibition” or" Clear zone". For the disc diffusion, the zone diameters were measured with slipping calipers of the National Committee for Clinical Laboratory […]
(§3) Agar-based methods such as E-test and disk diffusion can be good alternatives because they are simpler and faster than broth-based methods. […]

The test system of a further series is Candida albicans. Put plainly: Modified Kirby-Bauer disc diffusion (antifungal). The class given is cell-based. Conditions: for Inhibition zone diameter: Candida albicans (fungi). The method, then:
(§4) The antimicrobial activity of compounds 5a-k was assessed using a modified Kirby-Bauer disc diffusion method ([Alkhaldi et al., 2019]; [Al-Wahaibi et al., 2021b]; [Manso et al., 2021]; [Ecevit et al., 2022]). […] Ciprofloxacin was used as a reference medication. […] Compounds 5f-k had promising antibacterial action against Gram-positive and Gram-negative bacteria, ranging from 75% to 115% of typical ciprofloxacin levels.
(§5) In addition, the synthesized compounds 5a-k were evaluated for their antifungal activity against A. flavus and C. albicans, with Fluconazole as a reference medication (Table 1). […]
as §2, §3

The subject of another series is Aspergillus flavus. Put plainly: Modified Kirby-Bauer disc diffusion (antifungal). The class given is cell-based. Conditions: Aspergillus flavus (fungi). How it is done:
as §4, §5
Standard discs of ciprofloxacin (Antibacterial agent), Fluconazole (Antifungal agent) served as positive controls for antimicrobial activity but filter discs impregnated with 10 µl of solvent (distilled water, chloroform, DMSO) were used as a negative control. Blank paper disks (Schleicher & Schuell, Spain) with a diameter of 8.0 mm were impregnated 10µ of tested concentration of the stock solutions. When a filter paper disc impregnated with a tested chemical is placed on agar the chemical will diffuse from the disc into the agar. This diffusion will place the chemical in the agar only around the disc. The solubility of the chemical and its molecular size will determine the size of the area of chemical infiltration around the disc. If an organism is placed on the agar it will not grow in the area around the disc if it is susceptible to the chemical. This area of no growth around the disc is known as a “Zone of inhibition” or" Clear zone". For the disc diffusion, the zone diameters were measured with slipping calipers of the National Committee for Clinical Laboratory […]
as §3

Series [3] has as its system Pseudomonas aeruginosa. Put plainly: Modified Kirby-Bauer disc diffusion. The class given is cell-based. Particulars: Pseudomonas aeruginosa (G−). How it is done:
as §1, §2, §3

In series [4] the test system is Escherichia Coli. Put plainly: Modified Kirby-Bauer disc diffusion. The class given is cell-based. Particulars: Escherichia Coli (G−). How it is done: as §1, §2, §3
Series [5] deals with Bacillus subtilis. Nature of the series: Modified Kirby-Bauer disc diffusion. The class given is cell-based. Conditions: Bacillus subtilis (G+). How it is done: as §1, §2, §3
The test system of series [6] is Pseudomonas aeruginosa. Put plainly: MIC, twofold serial dilution, 96-well microtiter plate. The class given is cell-based. Conditions: Pseudomonas aeruginosa (G−). How it is done:
(§6) The antibacterial activity of compounds 5f, 5h, 5i, and 5k were evaluated using a twofold serial dilution method ([Parasa et al., 2011]), with ciprofloxacin as the reference compound. The MIC values for certain compounds were obtained through dose-response experiments. The stated values are based on a minimum of two independent experiments, with three replicates per concentration in each experiment. The experimental details can be found in Appendix A (Supplementary Material). […]
(§7) 4.2.2. Minimum inhibitory concentration assay
(§8) In 96-well microtiter plates and […] of fresh bacterial culture of a single McFarland unit overnight, a double serial dilution of each compound […] in sterile standard saline were prepared to every single source well. Ciprofloxacin antibiotic (5 mg / mL - 1) and normal saline were included as standard reference in each assay. The plates were incubated at 37 0C overnight. As an indicator of bacterial growth, […] of p-iodonitrotetrazolium violet (INT) was added to each well and incubated at 37 0C for 30 […]
(§9) min. MIC values are recorded as the lowest concentration of the extract that completely inhibited bacterial growth that is clear well. The colorless tetrazolidium salt acts as an electron accepter and is reduced to a red colored formazan product by biological activity organisms. Where bacterial growth was inhibited, the solution in the well remained clear after incubation with INT. […]
(§10) SybrGOLD in T10 buffer (10 mM Tris HCl with pH 8.0 and 1 mM EDTA) was added. […]

In series [7] the test system is Escherichia Coli. The series is described as above. The class given is cell-based. Conditions: Escherichia coli (G−). The method, then:
as §6, §7, §8, §9, §10

The subject of series [8] is Bacillus subtilis. The series is described as above. The class given is cell-based. Conditions: Bacillus subtilis (G+). The method, then: as §6, §7, §8, §9, §10
In a further series the test system is Staphylococcus aureus. The description is as above. The class given is cell-based. Conditions: Staphylococcus aureus (G+). The method, then:
as §6, §7, §8, §9, §10

For another series, the target named is T1, E. coli DNA gyrase (Escherichia coli, UniProt P0AES6).
T1 construct: purchased Inspiralis
Nature of the series: E. coli DNA gyrase supercoiling assay (Inspiralis kit). Type of series: biochemical. Conditions: at 1 µM of the compound. How it is done: The fluorescence was measured with a microplate reader (BioTek Synergy H4,
(§11) NaCl and 50 mM MgCl2) was added to terminate the enzymatic reaction. After
(§12) Initial screening was done at 100 or 10 μM concentration

A further series addresses T2, E. coli topoisomerase IV (Escherichia coli, UniProt P20083).
T2 construct: purchased Inspiralis
Put plainly: E. coli topoisomerase IV inhibitory assay (Inspiralis kit). The class given is biochemical. Particulars: at 1 µM of the compound. How it is done: as §11, §12
A single compound was designated with four wells followed by incubation of
After incubation, medium was removed completely from the […]

In brackets after ≈: the same amount, converted by molar mass.

T2 sequence (P20083 whole entry): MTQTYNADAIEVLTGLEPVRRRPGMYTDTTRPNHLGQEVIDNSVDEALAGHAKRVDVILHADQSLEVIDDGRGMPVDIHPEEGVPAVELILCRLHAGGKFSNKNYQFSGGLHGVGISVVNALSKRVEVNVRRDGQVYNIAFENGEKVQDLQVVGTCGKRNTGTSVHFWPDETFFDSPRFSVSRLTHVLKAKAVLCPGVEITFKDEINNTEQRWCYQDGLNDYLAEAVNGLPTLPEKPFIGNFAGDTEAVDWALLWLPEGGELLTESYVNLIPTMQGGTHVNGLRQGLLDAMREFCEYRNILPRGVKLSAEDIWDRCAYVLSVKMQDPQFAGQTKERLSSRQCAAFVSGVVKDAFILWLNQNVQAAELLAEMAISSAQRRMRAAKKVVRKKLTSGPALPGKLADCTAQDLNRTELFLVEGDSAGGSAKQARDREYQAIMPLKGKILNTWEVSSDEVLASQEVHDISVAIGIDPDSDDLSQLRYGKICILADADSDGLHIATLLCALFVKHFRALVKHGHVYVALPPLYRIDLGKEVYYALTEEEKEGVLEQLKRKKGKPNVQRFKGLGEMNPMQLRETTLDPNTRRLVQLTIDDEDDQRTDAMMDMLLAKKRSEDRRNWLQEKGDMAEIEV
T2 sequence (P0AFI2 whole entry, further chain): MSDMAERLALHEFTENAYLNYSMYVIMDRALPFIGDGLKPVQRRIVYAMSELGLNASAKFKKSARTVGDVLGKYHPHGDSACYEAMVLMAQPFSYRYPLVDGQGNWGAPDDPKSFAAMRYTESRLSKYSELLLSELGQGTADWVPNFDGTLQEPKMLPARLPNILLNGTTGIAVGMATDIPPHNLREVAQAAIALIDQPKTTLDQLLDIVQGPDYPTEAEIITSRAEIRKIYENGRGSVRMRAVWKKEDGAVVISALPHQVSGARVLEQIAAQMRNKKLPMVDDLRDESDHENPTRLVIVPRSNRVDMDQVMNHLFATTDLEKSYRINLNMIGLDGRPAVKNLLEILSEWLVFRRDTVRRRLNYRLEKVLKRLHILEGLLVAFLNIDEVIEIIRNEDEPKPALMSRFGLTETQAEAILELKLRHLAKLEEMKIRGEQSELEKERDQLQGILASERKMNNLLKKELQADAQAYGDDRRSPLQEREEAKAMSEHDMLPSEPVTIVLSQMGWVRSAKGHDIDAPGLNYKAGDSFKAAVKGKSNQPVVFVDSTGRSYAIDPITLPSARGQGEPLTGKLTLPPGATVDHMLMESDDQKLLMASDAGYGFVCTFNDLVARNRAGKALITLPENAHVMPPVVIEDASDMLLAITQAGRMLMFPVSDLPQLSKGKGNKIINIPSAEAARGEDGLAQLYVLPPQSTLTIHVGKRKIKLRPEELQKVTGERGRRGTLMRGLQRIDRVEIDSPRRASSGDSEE

What is called MIC is the least concentration at which growth counts as inhibited. With `Oc1ccccc1C=Nc1ccccc1O` [I, N-(salicylidene)-2-hydroxyaniline], the MIC in series [1] was 8 µg/mL (≈ 37.5 µM). In addition, the “cytotoxic effects on J774 macrophages” value in the series on J774 macrophages (1,000 μg/mL) is recorded as “did not show cytotoxic effects”. Further, the viable macrophage cells entry in the series with J774 macrophages (J774 macrophages, 1,000 μg/mL) is reported as “Over 80%”.

For the molecule “N'-((E)-3-Chlorobenzylidene)-4-(4-(2-((Z)-3-chlorobenzylidene)hydrazine-1-carbonyl)-3-hydroxybenzyl)-2-hydroxybenzohydrazide [Compound 5g]”, the activity of ciprofloxacin in series [2] amounted to 75%. The “activity compared to ciprofloxacin” value in the series on Staph. aureus (S. aureus) came to 88%. Also, the Inhibition zone diameter in the series with Staph. aureus was 35 mm/mg Sample; in the series with Candida albicans, 0.0 mm/mg Sample; in the series on Aspergillus flavus it was 0.0 mm/mg Sample; with Pseudomonas aeruginosa [3] it was 30 mm/mg Sample; in the series on Escherichia Coli [4] it was 30 mm/mg Sample; with Bacillus subtilis [5] it was 33 mm/mg Sample.

For the molecule “N'-((E)-4-Methylbenzylidene)-4-(4-(2-((Z)-4-methylbenzylidene)hydrazine-1-carbonyl)-3-hydroxybenzyl)-2-hydroxybenzohydrazide [Compound 5f]”, the “Minimum inhibitory concentration (MIC)” value came out at 0.125 µg/mL with Pseudomonas aeruginosa [6], 0.125 µg/mL with Escherichia Coli [7], 0.125 µg/mL with Bacillus subtilis [8] and 0.070 µg/mL with Staphylococcus aureus. Further, the “RA (residual activity of the enzyme) E. Coli DNA gyrase” value at E. coli DNA gyrase is 53%. Also, the “RA (residual activity of the enzyme) E. Coli Topo IV” value on E. coli topoisomerase IV was 77%. Besides, the Inhibition zone diameter with Staph. aureus amounted to 37 mm/mg Sample; with Candida albicans, 15 mm/mg Sample; with Aspergillus flavus it was 0.0 mm/mg Sample; in the series with Pseudomonas aeruginosa [3] it was 33 mm/mg Sample; in the series with Escherichia Coli [4], 33 mm/mg Sample; in the series with Bacillus subtilis [5], 37 mm/mg Sample. Besides, the “activity as % of fluconazole” value in the series with Candida albicans (C. albicans) was determined as 38%.
